Measurements reported in publication PMC4176390 (Journal of Natural Products, 2014).

How the values were obtained:
brevenal binding site [1] = assay: Fluorescent-ligand competition; set-up: species or system rat; conditions: for displacement of BODIPY FL-brevenal from synaptosomes (in words): BODIPY FL-brevenal 10 nM, competitors 1 pM to 10 μM
VSSCs = conditions: cited from earlier work
fish = conditions: cited from earlier work
brevenal binding site [2] = assay: Radioligand; conditions: read-out: Ki: radioligand assay; [3H]-brevenol, rat brain synaptosomes, mean ± SEM
[3] = system: voltage-sensitive sodium channels (VSSCs); conditions: cited from earlier work
sheep = conditions: cited from earlier work

CCN1C[C@]2(COC)[C@H](O)C[C@H](OC)[C@@]34[C@@H]5C[C@@]6(O)[C@H](OC(=O)c7ccccc7)[C@@H]5[C@@](OC(C)=O)([C@@H]([C@H](OC)[C@H]23)[C@@H]14)[C@@H](O)[C@@H]6OC [aconitine]
displacement of BODIPY FL-brevenal from synaptosomes (in words) (brevenal binding site [1]): none of these ligands were able to displace

C=C/C=C\CC[C@H]1O[C@H]2CC[C@@]3(C)O[C@H]4[C@@H](O)C[C@@]5(C)O[C@@H](CC/C=C(C)/C(C)=C/C=O)[C@@H](C)C[C@H]5O[C@@H]4C[C@@H]3O[C@@H]2CC[C@@]1(C)O [brevenal]
effect on VSSCs in patch-clamp experiments (VSSCs): does not appear to have any effect | toxicity to fish (fish): nontoxic at micromolar concentrations | Ki (brevenal binding site [2]): 149 ± 30 nM | displacement of BODIPY FL-brevenal from synaptosomes (in words) (brevenal binding site [1]): competed for binding to synaptosomes | Ki (brevenal binding site [1]; read-out: Ki: fluorescent-ligand assay, BODIPY FL-brevenal 10 nM as ligand, rat brain synaptosomes, mean ± SEM): 170 ± 31 nM | displacement of tritiated PbTx from synaptosomes [3]: competitively displace | mucociliary transport in sheep (sheep): increases mucociliary transport

CC1(C)[C@H](C(=O)O[C@H](C#N)c2cccc(Oc3ccccc3)c2)[C@@H]1C=C(Br)Br [deltamethrin]
displacement of BODIPY FL-brevenal from synaptosomes (in words) (brevenal binding site [1]): none of these ligands were able to displace

COc1ccc(C(=O)O[C@H]2CC[C@@]3(C)[C@@H]4CC[C@H]5[C@]6(O)C[C@H](O)[C@@]7(O)[C@@H](CN8C[C@@H](C)CC[C@H]8[C@@]7(C)O)[C@]6(O)C[C@@]53O[C@]24O)cc1OC [veratridine]
displacement of BODIPY FL-brevenal from synaptosomes (in words) (brevenal binding site [1]): none of these ligands were able to displace

PbTx-9
displacement of BODIPY FL-brevenal from synaptosomes (in words) (brevenal binding site [1]): None of the naturally occurring PbTx analogues were able to displace
